Values quoted from earlier work in patent US9492404B2, “Compositions and methods for treatment of taupathy” (Revalesio Corporation, priority 2010, dated 2016).

Tested on: primary progressive MS
Conditions: 943 patients with primary progressive MS

In the case of Glatiramer acetate, the “progression of disability and the disease” value is listed as “failed to halt”.
